Our source for the IC50 values is PubChem BioAssay AID2305 (GlaxoSmithKline (GSK), 2010).

Structures are written as SMILES. Several values for one entry are separate records, joined by “and”; a condition that tells them apart may be missing. Equal values may be shown once.

The test system of the experiment is P. falciparum 3D7 growth, pLDH absorbance. Briefly: blood-stage malaria parasite growth potency – strain 3D7, dose response (AID 2305).
Regarding `CN1CCN(Cc2ccc(-c3ccc4c(Nc5cc(O)c(F)cc5Cl)ccnc4c3)o2)CC1`, the IC50 worked out at 130 nM. `Cc1nnc2c(N(C(=O)NCCc3ccccc3)C(=O)NCCc3ccccc3)cc3cc(Cl)ccc3n12` showed an IC50 of 950 nM. Compound `CCNc1cc(C(=O)N[C@@H](Cc2ccccc2)[C@H](O)CNC(C)(C)Cc2cccc(Cl)c2)cc(N2CCCCS2(=O)=O)c1` registered an IC50 of 890 nM.

On to `N#Cc1ccc(-c2ccc(C(=O)NC3CCN(CCN4CCC(c5cn(CCO)c6ccccc56)CC4)CC3)cc2)cc1`, for which the IC50 was 760 nM.

In turn, `O=C(NC=Nc1cc([N+](=O)[O-])c(-c2ccncc2)n1-c1ccccc1)c1cccc(O)c1` showed an IC50 of 330 nM. As to `COc1ccc(NC(=O)C2c3ccccc3C(=O)N(CC(C)C)C2c2cccs2)cc1OC` (configuration not stated), the IC50 is 200 nM.

`CCCn1c(=N)c(C(=O)NCCc2ccccc2)cc2c(=O)n3cccc(C)c3nc21` returned a concentration for half-maximal inhibition (IC50) of 1120 nM. For `CC(C)CCN1CCC(Oc2ccc(NC(=O)c3cccs3)cc2Cl)CC1`, the 50% inhibitory concentration (IC50) stood at 340 nM.

For `CN(C)c1ccc(C=C2SC(=O)NC2=Nc2ccccc2)cc1`, the IC50 was 30 nM. The value for `O=C(Nc1ccc(OC2CCN(Cc3ccsc3)C2)c(Cl)c1)c1ccc(F)cc1` (configuration not stated) was 940 nM; that for `OC(CN(Cc1ccccc1)Cc1ccccc1)Cn1c2ccc(Cl)cc2c2cc(Cl)ccc21` (configuration not stated) was 990 nM; that for `C[C@H](NC(=O)c1c(CN2CCN(C(=O)C(C)(C)C)CC2)c(-c2cccs2)nc2ccccc12)C1CCCCC1` was 1180 nM. The value for `Cc1cccc(-c2nc(Nc3ccncc3)c3cc(N(C)C)ccc3n2)n1` was 710 nM; that for `COc1ccccc1CCNc1nc(C)cc(N[C@@H](CC(C)C)C(=O)NCc2cccs2)n1` was 790 nM; that for `COc1cccc(NC(=O)NC2CCN(c3ccnc(Nc4ccc(F)cc4)n3)C2)c1` (configuration not stated) was 570 nM. The value for `Nc1nc(N)c2c(Oc3cccc4ccccc34)cccc2n1` was 1010 nM.

As for `CC(C)c1nc2c(N)nc(N)nc2nc1N`, the IC50 was 1310 nM. The value for `Cc1ccc(F)c(C(=O)Nc2cccc(-c3nn4ccccc4c3-c3ccnc(Nc4cccc(F)c4)n3)c2)c1F` was 1050 nM; that for `CCc1cc2c3c(N)nc(N)nc3ccc2n1C(CC)CC` was 60 nM; that for `Brc1cc(Br)c2c(c1)C(NCCCNc1nc3ncccc3[nH]1)CCN2` (configuration not stated) was 590 nM.

Regarding `CCCNC(=O)c1cncc(-c2cccc(CNC3Cc4ccccc4C3)c2)c1`, the IC50 is 800 nM. The value for `COc1ccc(NS(=O)(=O)c2ccc(C(=O)Nc3ccc(OC(F)(F)F)cc3)cc2)cc1N1CCN(CC2CC2)CC1` was 1000 nM; that for `O=C(/C=C/c1ccc(Cl)c(Cl)c1)NCCCCCN1CCCN(C(=O)Nc2ccc(C(F)(F)F)cc2)CC1` was 690 nM. The value for `C[C@@H]1CN(C(c2cccc(O)c2)c2cccc(C(=O)N(C)c3cccc(F)c3)c2)[C@@H](C)CN1C(c1cccc(O)c1)c1cccc(C(=O)N(C)c2cccc(F)c2)c1` (some centres not stated) was 920 nM; that for `N#Cc1c(N)n(CCc2ccc(F)cc2)c2nc3ccccc3nc12` was 970 nM; that for `O=S(=O)(NC1=NCCC1)c1cccc(Nc2nc(C(F)(F)F)nc3ccccc23)c1` was 950 nM. With `Fc1cc(Cl)ccc1Nc1ccnc2cc(I)ccc12`, the IC50 turned out to be 1130 nM.

`COc1ccc(C(=O)CCC(=O)N(Cc2ccc(-c3ccc(CNCCc4ccc(S(C)(=O)=O)cc4)cn3)cc2)C2C[C@@H]3CC[C@H]2C3)cc1F` (some centres not stated): the 50% inhibitory concentration (IC50) stood at 930 nM. The value for `CC(=O)NCCNCc1cccc(C(=O)NCc2cccc(C(F)(F)F)c2)c1` was 1080 nM; that for `CN1CCN(c2ccc3nc(-c4ccc5nc(-c6ccc([N+](=O)[O-])c(N)c6)[nH]c5c4)[nH]c3c2)CC1` was 100 nM; that for `O=C(/C=C/c1ccc(Cl)c(Cl)c1)NCCCCCN1CCC(NC(=O)c2ccc(F)c(F)c2)CC1` was 790 nM. The value for `CCC(CC)N1C(=O)C(c2ccccc2)(c2ccccc2)N=C1N` was 800 nM; that for `COc1ccc2nc(-c3ccccc3)cc(NCCN(C)C)c2c1` was 730 nM; that for `CC(C)c1ccc2[nH]c(C(=O)NC3CCC(N4CCCc5ccc(C#N)cc5C4)CC3)cc2c1` (configuration not stated) was 1090 nM.

`CC(Cc1ccc(OCc2ccccc2)c(Cl)c1)NCC(O)c1cccc(C(F)(F)F)c1` (configuration not stated) showed an IC50 of 940 nM.

For the compound `Cc1ccc(S(=O)(=O)NC2=NC(C)(C)N(OCc3ccc(Cl)c(Cl)c3)C(N)=N2)cc1`, the IC50 is 1140 nM.

For the compound `CC(C)(C)c1ccc(C(=O)N2CCC3(CC2)C(=O)N(CC(=O)NCC2CCCO2)CN3c2ccccc2)cc1` (configuration not stated), the concentration for half-maximal inhibition (IC50) came to 230 nM. Consider `CN(C)c1ccc(-c2csc(C(=O)NC3CCCCN(Cc4ccc(C(C)(C)C)cc4)C3)c2)cc1` (configuration not stated), for which the 50% inhibitory concentration (IC50) stood at 1110 nM. In the case of `Cc1nc2nc(N)nc(N)c2c(C)c1Cc1cccs1`, the IC50 is 780 nM. The compound `CN1CCCN(c2ccnc3cc4c(cc23)N(C(=O)c2ccc(C(F)(F)F)cc2)CC4)CC1` returned a 50% inhibitory concentration (IC50) of 790 nM.

The compound `NOCCCCOc1ccc(Cl)cc1` came in with an IC50 of 780 nM. The value for `Nc1c2c(nc3ccc(Oc4ccc(Cl)cc4)cc13)CCCC2` was 970 nM; that for `c1ccc(-c2ccc(CNCCCNc3nc4ccccc4[nH]3)cc2)cc1` was 780 nM; that for `CCCN1CCC2(CC1)NC(C(=O)NCCC(C)C)Cc1c2[nH]c2cc(Cl)ccc12` (configuration not stated) was 1380 nM. On to `COc1ccc(-n2c(=O)c3c(n4c(SC(C)C)nnc24)-c2ccccc2CC32CCCCC2)cc1`, for which the IC50 amounted to 500 nM. Take `c1ccc(Oc2ccc(Nc3ccnc4cc(-c5ccc(CNCCN6CCOCC6)o5)ccc34)cc2)cc1`: the concentration for half-maximal inhibition (IC50) stood at 440 nM. Consider `COc1ccc2ncc(F)c(CCN3[C@@H]4CC[C@H]3CC(NCc3ccc5c(c3)OCCO5)C4)c2n1` (some centres not stated), for which the 50% inhibitory concentration (IC50) turned out to be 230 nM. `C[C@H](NC(=O)[C@H](Cc1ccccc1)NC(=O)OC(C)(C)C)C(=O)N[C@@H](CC1CCCCC1)C(O)CN` (some centres not stated) yielded an IC50 of 730 nM. The value for `C#CCOc1ccc(CC(C)NCC(O)c2cccc(C(F)(F)F)c2)cc1` (configuration not stated) was 1190 nM and 1030 nM; that for `COc1cc(C(=O)NCc2nn(CCN3CCC(N4CCCC4)CC3)cc2-c2ccc(Cl)c(Cl)c2)cc(OC)c1OC` was 770 nM. For the compound `O=C(Nc1cccc(-c2ccc(-c3nc4ccc(C(F)(F)F)cc4[nH]3)cc2)c1)c1ccoc1`, the half-maximal inhibitory concentration (IC50) amounted to 710 nM. The value for `COc1ccc(CCn2c(=N)c(C(=O)NCc3ccc(C)cc3)cc3c(=O)n4ccccc4nc32)cc1` was 1130 nM; that for `CCN(CC)CCNC(=O)c1ccc(NC(=O)c2cc(-c3ccncc3)nc3ccccc23)cc1` was 770 nM; that for `COc1ccc(NC(=O)Nc2cccc(-c3ccc(-c4nc5ccc(C(F)(F)F)cc5[nH]4)cc3)c2)cc1` was 450 nM. `Cc1cc(Nc2ccc3c(c2)CCC3)n2ncnc2n1` showed an IC50 of 970 nM. The value for `CCCCCN1C(=O)C(c2ccccc2)(c2ccccc2)N=C1N` was 790 nM.

`O=C(/C=C/c1ccc(Cl)c(Cl)c1)NCCCCCN1CCC(CCNC(=O)/C=C/c2cc(C(F)(F)F)ccc2F)CC1` showed an IC50 of 770 nM. In turn, `CC[C@H](C)CNC(=O)c1cncc(-c2ccc(CNCCCc3ccccc3)cc2)c1` gave an IC50 of 730 nM. The value for `CS(=O)(=O)c1ccc2nc(-c3cc(-c4cccc(F)c4)cnc3N)[nH]c2c1` was 1090 nM; that for `COc1cccc2c(O)c(CNC3CCCCC3)ccc12` was 630 nM. For the compound `CN(Cc1cccc(C#N)c1)C1CCN(c2cc(NC(=O)c3ccc(F)cc3)ccn2)CC1`, the IC50 worked out at 1070 nM. For `CCCN(CCC)C(=S)N=Nc1c(O)[nH]c2ccccc12`, the IC50 was 810 nM. The value for `CC(=O)c1c[nH]c(C(=O)Nc2ccc(-c3cn4ccccc4n3)cc2)c1` was 890 nM; that for `c1cc(-c2ccc(CNCCCN3CCOCC3)cc2)cc(-c2nc3ccccc3[nH]2)c1` was 210 nM; that for `O=C(NCc1cccs1)[C@H](Cc1ccccc1)Nc1ccnc(NCCc2ccc(F)cc2)n1` was 1450 nM.

The compound `CN(C)CCCSc1ccccc1NC(=O)C=Cc1ccccc1` had an IC50 of 960 nM. The value for `CCCCCN1CCCC(NS(=O)(=O)c2ccc(C(=O)Nc3cccc(C(F)(F)F)c3)cc2)C1` (configuration not stated) was 790 nM; that for `CCOc1ccc(C(=O)Nc2cc(Br)c3c(c2)CNCC3)cc1Br` was 990 nM; that for `COc1ccc(NC(=O)N2CCN(CCCCCNC(=O)/C=C/c3ccc(C(F)(F)F)cc3)CC2)cc1Cl` was 860 nM. The compound `COc1ccc2c(c1)CCN(CCN1CCC(CNC(=O)c3ccc(-c4ccc(C#N)cc4)cc3)CC1)C2` showed an IC50 of 620 nM. Regarding `COc1ccc(-c2ccccc2CNC2Cc3ccccc3C2)cc1S(=O)(=O)NCCN1CCCC1`, the concentration for half-maximal inhibition (IC50) stood at 870 nM. The value for `CCCc1cc(NCC)nc(Nc2ccc(F)cc2)n1` was 1030 nM. `O=C(C=Cc1ccc(Cl)c(Cl)c1)NCCCCCN1CCC(CCNC(=O)c2sc3ccccc3c2Cl)CC1` displayed an IC50 of 1010 nM. The value for `NC(=Nc1nc(-c2ccccn2)cc2ccccc12)c1cccc(Cl)c1` was 310 nM; that for `Cn1cnnc1Sc1ccc(CN2CCOc3ccc(C4=CCCCC4)cc3C2)o1` was 850 nM; that for `Cc1c(C(=O)Nc2cc(Sc3ccc(F)cc3)cc([N+](=O)[O-])c2)sc2ncn(Cc3cccc(F)c3)c(=O)c12` was 720 nM. For `COc1coc(C(=O)NC2CCN(CC3(c4ccc(Cl)cc4)CCC3)CC2)c1OC`, the 50% inhibitory concentration (IC50) is 160 nM. The value for `O=C(NCC1CCN(Cc2ccc3c(c2)OCCO3)C1)c1cc(-c2cccc(C(F)(F)F)c2)cs1` (configuration not stated) was 980 nM; that for `O=C(Nc1ccc2c(c1)OCO2)c1cc(-c2cccnc2)cnc1NCc1ccc2c(c1)OCO2` was 1190 nM. On to `Cc1nc(-c2cccc(Nc3nccc(NCC(O)c4ccccc4C)n3)c2)cs1` (configuration not stated), for which the half-maximal inhibitory concentration (IC50) was 890 nM. Compound `NC(=O)c1cccc(-n2ccc3cc(CNC4Cc5ccccc5C4)ccc32)c1` yielded an IC50 of 1130 nM. Turning to `CC1CCN(CC[C@H]2CCCN2S(=O)(=O)c2cccc(NC(=O)c3ccc(-c4ccccc4)cc3)c2)CC1`, the concentration for half-maximal inhibition (IC50) amounted to 1260 nM.

As to `CCCCCCn1c2c(c(=N)c3c1CCC3)CCC2`, the IC50 came to 180 nM. The value for `COc1ccc(C)c(Nc2ccnc(Nc3ccc(-c4cnc[nH]4)cc3)n2)c1` was 1370 nM; that for `COc1cccc2cc(C(=O)N[C@@H](CC(C)C)C(=O)N[C@H](/C=N/N3CCOC3=O)CC(C)C)oc12` was 740 nM. In the case of `COc1ccc2c(=O)c(Br)c(C)[nH]c2c1`, the 50% inhibitory concentration (IC50) is 190 nM.

`O=C(Nc1ccc(Cl)cc1)Nc1cccc(CCNCc2ccccc2)c1` displayed a 50% inhibitory concentration (IC50) of 730 nM.
